The Kinase Knowledgebase extract (Sharma et al. 2016)

Biological target: MAPK14 (human) (UniProt Q16539)
Experiment: Inhibition of MAPK14 Kinase Activity

MAPK14 (human), sequence (Q16539 whole entry, looked up): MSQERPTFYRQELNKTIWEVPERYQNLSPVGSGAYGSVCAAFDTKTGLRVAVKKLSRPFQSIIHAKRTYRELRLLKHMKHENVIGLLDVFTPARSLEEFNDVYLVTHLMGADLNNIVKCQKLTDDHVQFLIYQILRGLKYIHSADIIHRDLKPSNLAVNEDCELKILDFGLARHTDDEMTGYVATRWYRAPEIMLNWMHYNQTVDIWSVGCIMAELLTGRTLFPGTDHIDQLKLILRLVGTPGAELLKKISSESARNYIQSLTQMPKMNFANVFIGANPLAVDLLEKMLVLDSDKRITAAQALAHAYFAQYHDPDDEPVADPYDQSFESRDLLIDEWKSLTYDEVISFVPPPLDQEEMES

Row | Compound | IC50
1 | CC(C)(CN)n1c(=O)[nH]c2cc(Nc3ccc(F)cc3)ccc21 | < 1000 nM
2 | CCS(=O)(=O)N1CCC(n2c(=O)[nH]c3cc(Nc4ccc(F)cc4)ccc32)C1 (configuration not stated) | < 1000 nM
3 | O=c1[nH]c2cc(Nc3ccccc3F)c(N3CCNCC3)cc2n1CC1CCCCC1 | < 1000 nM
4 | CC(C)(CN)n1c(=O)[nH]c2cc(Nc3ccccc3)ccc21 | < 1000 nM
5 | O=c1[nH]c2cc(Nc3ccccc3)ccc2n1Cc1ccccc1 | < 1000 nM
6 | O=c1[nH]c2cc(Nc3cccc(F)c3)ccc2n1CC1CCCCC1 | < 1000 nM
7 | C=C/C(=C\C=C(/C)F)Nc1ccc2c(c1)[nH]c(=O)n2C(C)(C)CN(C)C | < 1000 nM
8 | CC(c1ccccc1)n1c(=O)[nH]c2cc(Nc3ccccc3)ccc21 (configuration not stated) | < 1000 nM
9 | O=c1[nH]c2cc(Nc3ccc(F)cc3)ccc2n1C1CCNC1 (configuration not stated) | < 1000 nM
10 | CS(=O)(=O)N1CCC(n2c(=O)[nH]c3cc(Nc4ccccc4F)ccc32)C1 (configuration not stated) | < 1000 nM
11 | O=c1[nH]c2cc(Nc3ccccc3)ccc2n1C1CCCc2ccccc21 (configuration not stated) | < 1000 nM
12 | Cc1ccccc1Nc1ccc2c(c1)[nH]c(=O)n2C(C)(C)CN(C)C | < 1000 nM
13 | CS(=O)(=O)N1CCC(n2c(=O)[nH]c3cc(Nc4ccc(F)cc4F)ccc32)C1 (configuration not stated) | < 1000 nM
14 | Cc1ccccc1Nc1ccc2c(c1)[nH]c(=O)n2C1CCN(C)C1 (configuration not stated) | < 1000 nM
15 | O=c1[nH]c2cc(Nc3ccccc3)ccc2n1CCc1ccccc1 | < 1000 nM
16 | O=c1[nH]c2cc(Nc3ccccc3)ccc2n1-c1ccccc1 | < 1000 nM

Row | Compound | IC50
17 | CN1CCC(n2c(=O)[nH]c3cc(Nc4ccccc4)ccc32)C1 (configuration not stated) | < 1000 nM
18 | O=c1[nH]c2cc(Nc3ccccc3)ccc2n1C1CCNC1 (configuration not stated) | < 1000 nM
19 | CCS(=O)(=O)N1CCC(n2c(=O)[nH]c3cc(Nc4ccccc4)ccc32)C1 (configuration not stated) | < 1000 nM
20 | CCS(=O)(=O)N1CCC(n2c(=O)[nH]c3cc(Nc4ccccc4C)ccc32)C1 (configuration not stated) | < 1000 nM
21 | CNCC(C)(C)n1c(=O)[nH]c2cc(Nc3ccccc3)ccc21 | < 1000 nM
22 | CCS(=O)(=O)N1CCC(n2c(=O)[nH]c3cc(Nc4ccccc4F)ccc32)C1 (configuration not stated) | < 1000 nM
23 | CC(C)(C)n1c(=O)[nH]c2cc(Nc3ccccc3)ccc21 | < 1000 nM
24 | O=c1[nH]c2cc(Nc3ccccc3)ccc2n1CC1CCCCC1 | < 1000 nM
25 | O=c1[nH]c2cc(Nc3ccccc3)c(N3CCNCC3)cc2n1CC1CCCCC1 | < 1000 nM
26 | O=c1[nH]c2cc(Nc3ccccc3F)ccc2n1CC1CCCCC1 | < 1000 nM
27 | O=c1[nH]c2cc(Nc3ccccc3)ccc2n1C1CCc2ccccc21 (configuration not stated) | < 1000 nM
28 | Cc1ccccc1Nc1ccc2c(c1)[nH]c(=O)n2CC1CCCCC1 | < 1000 nM
29 | O=c1[nH]c2cc(Nc3ccc(F)cc3)ccc2n1CC1CCCCC1 | < 1000 nM
30 | O=c1[nH]c2cc(Nc3ccc(F)cc3F)ccc2n1CC1CCCCC1 | < 1000 nM
31 | CC(C1CCCCC1)n1c(=O)[nH]c2cc(Nc3ccccc3)ccc21 (configuration not stated) | < 1000 nM
32 | Cc1ccccc1Nc1ccc2c(c1)[nH]c(=O)n2C1CCN(S(C)(=O)=O)C1 (configuration not stated) | < 1000 nM

Further lines, results first:

Row | IC50 | Compound
33 | < 1000 nM | CNCC(C)(C)n1c(=O)[nH]c2cc(Nc3ccc(F)cc3)ccc21
34 | < 1000 nM | CN1CCN(c2cc3c(cc2Nc2ccccc2)[nH]c(=O)n3CC2CCCCC2)CC1
35 | < 1000 nM | Cc1ccccc1Nc1ccc2c(c1)[nH]c(=O)n2C(C)(C)CN
36 | < 1000 nM | O=c1[nH]c2cc(Nc3ccccc3)ccc2n1Cc1cccnc1
37 | < 1000 nM | CN(C)CC(C)(C)n1c(=O)[nH]c2cc(Nc3ccc(F)cc3F)ccc21
38 | < 1000 nM | CN(C)CC(C)(C)n1c(=O)[nH]c2cc(Nc3ccccc3)ccc21
39 | < 1000 nM | CN(C)CC(C)(C)n1c(=O)[nH]c2cc(Nc3ccccc3F)ccc21
40 | < 1000 nM | CC(C)(CN)n1c(=O)[nH]c2cc(Nc3ccc(F)cc3F)ccc21
41 | < 1000 nM | CNCC(C)(C)n1c(=O)[nH]c2cc(Nc3ccccc3C)ccc21
42 | < 1000 nM | O=c1[nH]c2cc(Nc3ccccc3)ccc2n1C1CCCC1
43 | < 1000 nM | CN1CCC(n2c(=O)[nH]c3cc(Nc4ccccc4F)ccc32)C1 (configuration not stated)
44 | < 1000 nM | O=c1[nH]c2cc(Nc3ccccc3)ccc2n1CC1CCCO1 (configuration not stated)
45 | < 1000 nM | COc1cccc(Cn2c(=O)[nH]c3cc(Nc4ccccc4)ccc32)c1
46 | < 1000 nM | Cc1ccccc1Nc1cc2[nH]c(=O)n(CC3CCCCC3)c2cc1N1CCN(C)CC1
47 | < 1000 nM | Cc1ccccc1Nc1cc2[nH]c(=O)n(CC3CCCCC3)c2cc1N(C)CCN(C)C
48 | < 1000 nM | CN1CCN(c2cc3c(cc2Nc2ccccc2F)[nH]c(=O)n3C2CCCC2)CC1
49 | < 1000 nM | CS(=O)(=O)N1CCC(n2c(=O)[nH]c3cc(Nc4ccc(F)cc4)ccc32)C1 (configuration not stated)
50 | < 1000 nM | CN1CCC(n2c(=O)[nH]c3cc(Nc4ccc(F)cc4F)ccc32)C1 (configuration not stated)
51 | < 1000 nM | CNCC(C)(C)n1c(=O)[nH]c2cc(Nc3ccccc3F)ccc21
52 | < 1000 nM | O=c1[nH]c2cc(Nc3ccc(F)cc3F)ccc2n1C1CCNC1 (configuration not stated)
53 | < 1000 nM | O=c1[nH]c2cc(Nc3ccc(F)c(F)c3)ccc2n1CC1CCCCC1
54 | < 1000 nM | Cc1ccccc1Nc1ccc2c(c1)[nH]c(=O)n2C1CCNC1 (configuration not stated)
55 | < 1000 nM | Cc1ccc(Nc2ccc3c(c2)[nH]c(=O)n3CC2CCCCC2)cc1N
56 | < 1000 nM | O=c1[nH]c2cc(Nc3ccccc3F)ccc2n1C1CCNC1 (configuration not stated)
57 | < 1000 nM | CC(C)(CN)n1c(=O)[nH]c2cc(Nc3ccccc3F)ccc21
58 | < 1000 nM | O=c1[nH]c2cc(Nc3ccccc3)ccc2n1Cc1c(F)cccc1F
59 | < 1000 nM | COc1ccccc1Nc1ccc2c(c1)[nH]c(=O)n2CC1CCCCC1
60 | < 1000 nM | CCS(=O)(=O)N1CCC(n2c(=O)[nH]c3cc(Nc4ccc(F)cc4F)ccc32)C1 (configuration not stated)
61 | < 1000 nM | Cc1ccccc1Nc1cc2[nH]c(=O)n(CC3CCCCC3)c2cc1N(C)CCCN(C)C
62 | < 1000 nM | CN1CCC(n2c(=O)[nH]c3cc(Nc4ccc(F)cc4)ccc32)C1 (configuration not stated)
